Measured values taken from patent publication US20040067991A1, “Tetrahydrobenzothiazole analogues as neuroprotective agents” (priority 2003, published 2004).
“Also recorded” adds a separate entry of the source. Where a name gives a salt, the structure may show the parent alone. Read-outs that look alike come from different tables or passages of the source.

Columns and labels:
rat hippocampal neurons = test: Neuronal survival assay in cultured hippocampal neurons treated with camptothecin or etoposide; type: cell-based; conditions: for neurons killed / protection of primary hippocampal cells against death induced by camptothecin and etoposide (in words): camptothecin 5 μM, etoposide 2.5 μM; for neurons killed: hippocampal neurons; for neuroprotection of hippocampal neurons against camptothecin (in words): 100 nM, added 1 h before camptothecin 5 μM
Procedure: 2-amino-4,5,6,7-tetrahydrobenzothiazole hydrogen and 1-(4-methylphenyl)-2-(4,5,6,7-tetrahydro-2-imino-3(2H)-benzothiazolyl)-ethanone hydrobromide and their analogues were assessed for their ability to protect rat hippocampal cells in culture from camptothecin ([…]).
Dissociated hippocampal cell cultures were established from embryonic day 18 Sprague-Dawley rats (Harlan, Inc.) as described previously. […] 77:220-28. Cells were grown in polyethyleneimine-coated plastic dishes or 22 m^2 glass coverslips, and incubated in Neurobasal medium containing B27 supplements, 2 mM L-glutamine, 25 mg/ml gentamycin, 1 mM Hepes (Gibco BRL) and 0.001% gentamicin sulfate. All experiments were performed using 9-10 day-old cultures. Camptothecin and etoposide (Signia) were prepared as 500× stocks in DMSO. Neuron survival was quantified by established methods. […] Briefly, viable neurons in premarked fields (10× objective) were counted before experimental treatment and at specified time points thereafter. Neurons with intact neurites of uniform diameter and soma with a smooth round appearance were considered viable. In contrast neurons with fragmented neurites and vacuolated soma were considered non-viable.

PC12 cells = test: Protection of PC12 cells against camptothecin-induced cell death (BCECF AM fluorescence); type: cell-based
Procedure: The 2-amino-4,5,6,7-tetrahydrobenzothiazole hydrogen iodide, 1-(4-methylphenyl)-2-(4,5,6,7-tetrahydro-2-imino-3(2H)-benzothiazolyl)-ethanone hydrobromide, and analogues were tested for their ability to protect PC12 cells against the toxic agent, camptothecin. PC12 cells were cultured in RPMI1640 media containing 10% horse serum and 5% fetal calf serum (37° C., pH 7.4) until confluent. Thereafter, 2.2×10^4 cells per mL were added to each trough of a 96 well plate (approximately 6,270 cells per well 285 μL) and were left to grow for 12 h. The media then was removed and was replaced by media with and without the compounds to be tested, including precursor, PFTα, and numerous analogues (concentration 100-400 nM, prepared in DMSO to a final dilution of 0.4%, 8 wells per concentration). Following 6 h of incubation, camptothecin (40 μM) was added to 4 of each 8 wells, and the cells were incubated for a further 24 h. Cells then were gently washed twice with phosphate buffered saline (PBS: 0.1 M, 37° C., pH 7.4) and were incubated in PBS containing the live-cell indicator dye, 2′,7′-bis(2-carboxyethey)-5-6-carboxyfluorescein AM ester (BCECF AM: 5 μM) (Molecular Probes, CA), for 45 min in minimal light. This fluorescent dye was taken up and retained by live cells. Finally, the cells were washed twice in PBS and their fluorescence then was quantified (excitation: 490 nm, emission: 535 nm, Perkin Elmer HTS 7000).
PC12 cell survival was also assessed. One hundred percent cell survival was determined from cells incubated in the absence of both any compound and camptothecin. […] Compound-induced toxicity was assessed by comparing cells treated with compound at various concentrations in the absence of camptothecin with cells incubated in the absence of both compound and camptothecin. […] Compound-induced cellular protection was assessed by comparing cells incubated with camptothecin with cells incubated with camptothecin in the presence of compound, in a concentration-dependent manner.

C57BL/6 mice given MPTP = test: MPTP model: striatal dopamine, serotonin and metabolites by HPLC; type: in vivo, mouse; conditions: striatal tissue, compound 2 mg/kg + MPTP, mean±SE, 4-6 mice/group
Procedure: The ability of PFTα (5) and compounds 5× (Z-1-117) and 13 (Z-1-143) to protect dopaminergic neurons against MPTP toxicity was tested. MPTP (20 mg/kg) was administered intraperitoneally to 2 month-old male C57BL/6 mice by four injections at two hour intervals to induce dopaminergic cell death.
In a separate experiment, levels of striatal dopamine, dopamine metabolites, serotonin, and serotonin metabolites were measured using HPLC analysis. Specifically, mice were euthanatized, and striatal tissue samples were removed and levels of dopamine, DOPAC, HVA, 5-HT, 5-HIAA were quantified. […] There was no significant difference in levels of serotonin or serotonin metabolites.

[1] = 6 h preincubation with compound, camptothecin 40 μM for 24 h; read-out: PD50; concentration of compounds required to induce 50% protection (PC50) of PC12 cells from camptothecin-induced cell-death
[2] = compounds 100-400 nM, camptothecin 40 μM 24 h

CC[C@@]1(O)C(=O)OCc2c1cc1n(c2=O)Cc2cc3ccccc3nc2-1 [camptothecin, reference compound]
neurons killed (rat hippocampal neurons): approximately 85%

Cc1ccc(C(=O)Cn2c3c(oc2=N)CCCC3)cc1 [Compound 27, 1-(4-methylphenyl)-2-(4,5,6,7-tetrahydro-2-imino-3(2H)-benzoxazolyl)ethanone hydrobromide]
EC50 (PC12 cells; [1]): 69 nM

I.Nc1nc2c(s1)CCCC2 [precursor, 2-amino-4,5,6,7-tetrahydrobenzothiazole hydrogen iodide]
protection of PC12 cells against camptothecin-induced death (in words) (PC12 cells; [2]): low activity | EC50 (PC12 cells; read-out: PD50; concentration of compounds required to induce 50% protection (PC50) of PC12 cells from camptothecin-induced cell-death; 6 h preincubation with compound, camptothecin 40 μM for 24 h): 5750 nM | toxicity when administered alone to hippocampal cells (rat hippocampal neurons; concentrations up to 400 nM): neither PFTα (5) nor its precursor were toxic

Br.N=c1sc2c(n1CC(=O)c1ccccc1)CCCC2 [Compound 13, 1-phenyl-2-(4,5,6,7-tertahydro-2-imino-3(2H)-benzothiazolyl)-ethanone hydrobromide]
EC50 (PC12 cells; [1]): 169 nM | protection of PC12 cells against camptothecin-induced death (in words) (PC12 cells; compounds 100-400 nM, camptothecin 40 μM 24 h; hydrobromide): highly potent; also recorded: highly active in PC12 cells only | 5-HIAA (C57BL/6 mice given MPTP): 223 ± 45 pg/mg tissue weight | 5-HT (C57BL/6 mice given MPTP): 429 ± 42 pg/mg tissue weight | DOPAC (C57BL/6 mice given MPTP): 10 ± 10 pg/mg tissue weight | Dopamine (C57BL/6 mice given MPTP): 440 pg/mg tissue weight | HVA (C57BL/6 mice given MPTP): 91 ± 58 pg/mg tissue weight

N=c1sc2c(n1CC(=O)c1ccc(F)cc1)CCCC2 [Compound 4, 1-(4-fluorophenyl)-2-(4,5,6,7-tertahydro-2-imino-3 (2H)-benzothiazolyl)-ethanone hydrobromide]
EC50 (PC12 cells; [1]): 379 nM

Br.COc1cccc(C(=O)Cn2c3c(sc2=N)CCCC3)c1 [Compound 8, 1-(3-methoxylphenyl)-2-(4,5,6,7-tertahydro-2-imino-3(2H)-benzothiazolyl)-ethanone hydrobromide]
EC50 (PC12 cells; [1]): 418 nM | neuroprotection of hippocampal neurons against camptothecin (in words) (rat hippocampal neurons): significantly protected | protection of primary hippocampal cells against death induced by camptothecin and etoposide (in words) (rat hippocampal neurons; 24 h): highly potency

Br.COc1ccc(C(=O)Cn2c3c(sc2=N)CCCC3)cc1 [Compound 6, 1-(4-methoxylphenyl)-2-(4,5,6,7-tertahydro-2-imino-3(2H)-benzothiazolyl)-ethanone hydrobromide]
EC50 (PC12 cells; [1]): 182 nM | protection of PC12 cells against camptothecin-induced death (in words) (PC12 cells; [2]): highly potent

CC(C)(C)c1ccc(Cn2c3c(sc2=N)CCCC3)cc1 [Compound 19, 2-imino-3-(4′-tert-butylbenzyl)-4,5,6,7-tetrahydro-3(2H)-benzothiazole hydrobromide]
EC50 (PC12 cells; [1]): 315 nM

COc1cc([C@@H]2c3cc4c(cc3[C@@H](O[C@@H]3O[C@@H]5CO[C@@H](C)O[C@H]5[C@H](O)[C@H]3O)[C@H]3COC(=O)[C@H]23)OCO4)cc(OC)c1O [etoposide, reference compound]
neurons killed (rat hippocampal neurons): approximately 85%

N=c1sc2c(n1Cc1cccc(Cn3c4c(sc3=N)CCCC4)n1)CCCC2 [Compound 30, 2,6-Bis[(4,5,6,7-tetrahydro-2-imino-3(2H)-benzothiazolyl)methyl]pyridine Dihydrobromide]
EC50 (PC12 cells; [1]): 133 nM

N=c1sc2c(n1CCc1ccccc1)CCCC2 [Compound 25, 2-imino-3-phenylethyl-4,5,6,7-tetrahydro-3(2H)-benzothiazole]
EC50 (PC12 cells; [1]): 1100 nM

ethyl 2-(4,5,6,7-tertahydro-2-imino-3(2H)-benzothiazolyl)-acetate hydrobromide [Compound 2]
EC50 (PC12 cells; [1]): 595 nM

N=c1sc2c(n1Cc1ccc([N+](=O)[O-])cc1)CCCC2 [Compound 20, 2-imino-3-(4′-nitrobenzyl)-4,5,6,7-tetrahydro-3(2H)-benzothiazole hydrobromide]
EC50 (PC12 cells; [1]): 144 nM

1-(4-phenylphenyl)-2-(4,5,6,7-tertahydro-2-imino-3(2H)-benzothiazolyl)-ethanone hydrobromide [Compound 10]
EC50 (PC12 cells; [1]): 767 nM

Br.N=c1sc2c(n1CC1CC1)CCCC2 [Compound 15, 3-(cyclopropylmethyl)-4,5,6,7-tetrahydro-2(3H)-benzothiazolimine Hydrobromide]
EC50 (PC12 cells; [1]): 728 nM | neuroprotection of hippocampal neurons against camptothecin (in words) (rat hippocampal neurons): could not protect neurons effectively | neuroprotection of hippocampal neurons against etoposide (in words) (rat hippocampal neurons; added 1 h before etoposide 2.5 μM): activity comparable to PFTα | protection of primary hippocampal cells against death induced by camptothecin and etoposide (in words) (rat hippocampal neurons; 24 h): highly potency | neuronal survival (rat hippocampal neurons; pretreated with 100 nM of analogue, then camptothecin (5 μM), 24 h): 23%

CCC(=O)Cn1c2c(oc1=N)CCCC2 [Compound 28, 1-(4,5,6,7-tertahydro-2-imino-3(2H)-benzoxazolyl)-2-butanone hydrobromide]
EC50 (PC12 cells; [1]): 143 nM

N=c1sc2c(n1Cc1ccc(C(F)(F)F)cc1)CCCC2 [Compound 22, 2-imino-3-(4′-trifluorobenzyl)-4,5,6,7-tetrahydro-3(2H)-benzothiazole hydrobromide]
EC50 (PC12 cells; [1]): 327 nM

Br.N=c1sc2c(n1CC(=O)c1ccc(Cl)cc1)CCCC2 [Compound 9, 1-(4-chlorophenyl)-2-(4,5,6,7-tertahydro-2-imino-3(2H)-benzothiazolyl)ethanone hydrobromide]
EC50 (PC12 cells; [1]): 187 nM | protection of PC12 cells against camptothecin-induced death (in words) (PC12 cells; [2]): highly potent | neuroprotection of hippocampal neurons against camptothecin (in words) (rat hippocampal neurons): significantly protected | protection of primary hippocampal cells against death induced by camptothecin and etoposide (in words) (rat hippocampal neurons; 24 h): highly potency

2-Imino-3-butyl-4,5,6,7-tetrahydro-3(2H)-benzothiazole hydrobromide [Compound 26]
EC50 (PC12 cells; [1]): 395 nM

N=c1sc2c(n1CC(=O)c1ccc([N+](=O)[O-])cc1)CCCC2 [Compound 11, 1-(4-nitrophenyl)-2-(4,5,6,7-tertahydro-2-imino-3(2H)-benzothiazolyl)ethanone hydrobromide]
EC50 (PC12 cells; [1]): 410 nM

Cc1ccc(Cn2c3c(sc2=N)CCCC3)cc1 [Compound 18, 2-imino-3-(4′-methylbenzyl)-4,5,6,7-tetrahydro-3(2H)-benzothiazole hydrobromide]
EC50 (PC12 cells; [1]): 1000 nM

Cc1ccc(-c2cn3c4c(sc3n2)CCCC4)cc1 [Compound 29, 2-(4′-methylphenyl)-5,6,7,8-tetrahydroimidazo[2,1-b]benzothiazole]
EC50 (PC12 cells; [1]): 214 nM

Br.COc1ccccc1C(=O)Cn1c2c(sc1=N)CCCC2 [Compound 7, 1-(2-methoxylphenyl)-2-(4,5,6,7-tertahydro-2-imino-3(2H)-benzothiazolyl)-ethanone hydrobromide]
EC50 (PC12 cells; [1]): 348 nM | protection of PC12 cells against camptothecin-induced death (in words) (PC12 cells; [2]): highly potent

2-imino-3-(4′-cyanobenzyl)-4,5,6,7-tetrahydro-3(2H)-benzothiazole hydrobromide [Compound 21]
EC50 (PC12 cells; [1]): 418 nM

2-imino-3-(4′-fluorobenzyl)-4,5,6,7-tetrahydro-3(2H)-benzothiazole hydrobromide [Compound 16]
EC50 (PC12 cells; [1]): 154 nM

N=c1sc2c(n1Cc1ccc(F)cc1F)CCCC2 [Compound 17, 2-imino-3-(2′,4′-difluorobenzyl)-4,5,6,7-tetrahydro-3(2H)-benzothiazole hydrobromide]
EC50 (PC12 cells; [1]): 93 nM

2-imino-3-(naphthalenylmethyl-4,5,6,7-tetrahydro-3(2H)-benzothiazole hydrobromide [Compound 24]
EC50 (PC12 cells; [1]): 318 nM
